# Target: T1, human ether-a-go-go-related gene (hERG) potassium channel (Homo sapiens, UniProt Q12809)
# T1 construct: gene KCNH2; WT hERG stably expressed in HEK293 cells
# Experiment: whole-cell patch clamp of hERG tail current, immediate perfusion; acute block lost in Y652A and F656V mutants
# Type: cell-based
# T1 sequence (Q12809 whole entry): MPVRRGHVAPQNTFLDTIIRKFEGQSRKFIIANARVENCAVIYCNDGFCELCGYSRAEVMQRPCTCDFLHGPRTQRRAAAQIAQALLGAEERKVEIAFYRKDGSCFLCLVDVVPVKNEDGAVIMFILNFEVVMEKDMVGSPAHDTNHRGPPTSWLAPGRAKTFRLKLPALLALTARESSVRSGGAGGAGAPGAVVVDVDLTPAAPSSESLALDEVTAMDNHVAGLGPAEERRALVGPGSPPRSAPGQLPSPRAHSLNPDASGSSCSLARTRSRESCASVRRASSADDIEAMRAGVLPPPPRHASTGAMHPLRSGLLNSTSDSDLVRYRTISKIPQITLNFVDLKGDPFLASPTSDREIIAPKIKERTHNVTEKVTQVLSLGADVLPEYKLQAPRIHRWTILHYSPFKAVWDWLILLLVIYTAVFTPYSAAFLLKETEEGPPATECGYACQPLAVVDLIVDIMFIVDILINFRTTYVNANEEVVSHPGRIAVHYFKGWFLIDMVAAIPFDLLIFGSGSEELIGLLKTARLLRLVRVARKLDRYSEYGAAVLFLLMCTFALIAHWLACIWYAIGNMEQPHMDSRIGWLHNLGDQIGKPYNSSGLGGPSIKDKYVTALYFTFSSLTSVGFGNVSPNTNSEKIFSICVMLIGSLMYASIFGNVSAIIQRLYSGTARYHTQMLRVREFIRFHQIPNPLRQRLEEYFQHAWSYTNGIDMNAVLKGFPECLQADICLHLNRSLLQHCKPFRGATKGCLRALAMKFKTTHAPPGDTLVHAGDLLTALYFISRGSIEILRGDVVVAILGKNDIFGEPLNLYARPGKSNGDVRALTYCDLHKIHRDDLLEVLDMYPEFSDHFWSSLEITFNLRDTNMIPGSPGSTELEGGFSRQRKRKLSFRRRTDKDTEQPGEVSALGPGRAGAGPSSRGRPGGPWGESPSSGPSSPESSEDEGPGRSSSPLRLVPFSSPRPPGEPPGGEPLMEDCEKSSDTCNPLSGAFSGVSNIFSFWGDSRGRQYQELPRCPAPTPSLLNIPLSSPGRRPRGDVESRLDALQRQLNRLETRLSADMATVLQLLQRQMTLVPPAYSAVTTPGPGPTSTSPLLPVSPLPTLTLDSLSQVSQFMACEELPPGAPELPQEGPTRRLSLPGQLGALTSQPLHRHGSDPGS
compound,measurement,value
"COc1ccc2c(c1OC)CN1CCc3cc4c(cc3C1=C2)OCO4 [DHB, dihydroberberine]",IC50,10.5 µM
